Test results published in ChEMBL document CHEMBL1201862, “PubChem BioAssay data set” (2004).
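Values below derive from 48-hour exposures of cells grown in 96-well plates, with endpoints linearly interpolated between the two concentrations bracketing the appropriate inhibition level. The concentration for 50% growth inhibition is given as GI50.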 Calls of active or inactive are those of the source. Rule as the data show it: active = GI50 up to about 1.1 µM and inactive = higher.

What was measured:
Experiment in all cases: inhibition of tumour cell growth, NCI panel, 48 h
MDA-N = tested on: MDA-N
HOP-62 = tested on: HOP-62
UACC-257 = tested on: UACC-257
OVCAR-3 = tested on: OVCAR-3
SK-OV-3 = tested on: SK-OV-3
SK-MEL-28 = tested on: SK-MEL-28
SNB-75 = tested on: SNB-75
A549 = tested on: A549
IGROV-1 = tested on: IGROV-1
786-0 = tested on: 786-0
ACHN = tested on: ACHN
U-251 = tested on: U-251
SF-539 = tested on: SF-539
SK-MEL-5 = tested on: SK-MEL-5
Malme-3M = tested on: Malme-3M
NCI-H23 = tested on: NCI-H23
MOLT-4 = tested on: MOLT-4
OVCAR-8 = tested on: OVCAR-8
NCI-H522 = tested on: NCI-H522

Measured: GI50

CCCCCCCCCCCCCC(=O)OCC(CCS(=O)(=O)O[C@H]1CC[C@@]2(C)C(=CC[C@@H]3C2CC[C@]2(C)C(=O)CCC32)C1)OC(=O)CCCCCCCCCCCCC (some centres not stated)
inactive: MDA-N > 100 µM | HOP-62 > 100 µM | UACC-257 > 100 µM | OVCAR-3 > 100 µM | SK-OV-3 > 100 µM | SK-MEL-28 > 100 µM | SNB-75 > 100 µM | A549 > 100 µM | IGROV-1 > 100 µM | 786-0 > 100 µM | ACHN > 100 µM | U-251 > 100 µM | SF-539 > 100 µM | SK-MEL-5 > 100 µM | Malme-3M > 100 µM | NCI-H23 > 100 µM

CC1OC23CCCCC2C(C#N)(C#N)C1(C#N)C(=N)O3 (configuration not stated)
inactive: MOLT-4 23.2 µM | MDA-N 18.4 µM | UACC-257 18 µM | OVCAR-3 17.7 µM | SK-OV-3 > 100 µM | SK-MEL-28 21.7 µM | SNB-75 38.3 µM | OVCAR-8 20.7 µM | A549 96.2 µM | IGROV-1 19.6 µM | 786-0 12.8 µM | ACHN 19.9 µM | U-251 22.8 µM | SF-539 21.8 µM | SK-MEL-5 16.3 µM | Malme-3M 20.4 µM | NCI-H23 21 µM

Sc1cnnc2ccc(Br)cc12
inactive: MOLT-4 40.2 µM | HOP-62 > 100 µM | UACC-257 29.4 µM | OVCAR-3 30.3 µM | SK-OV-3 > 100 µM | SK-MEL-28 40.4 µM | SNB-75 > 100 µM | OVCAR-8 59.2 µM | A549 36.1 µM | NCI-H522 28 µM | IGROV-1 48.1 µM | 786-0 > 100 µM | ACHN 28.5 µM | U-251 38.7 µM | SF-539 33 µM | SK-MEL-5 32.1 µM | Malme-3M 24.7 µM | NCI-H23 28.8 µM

CCCCN(CC)C(=O)C1=C(C)NC(C)=C(C(=O)N(CC)CCCC)C1
inactive: MOLT-4 > 100 µM | MDA-N > 100 µM | HOP-62 > 100 µM | UACC-257 > 100 µM | OVCAR-3 > 100 µM | SK-OV-3 > 100 µM | SK-MEL-28 > 100 µM | SNB-75 77.1 µM | OVCAR-8 > 100 µM | A549 > 100 µM | IGROV-1 97.7 µM | 786-0 > 100 µM | ACHN > 100 µM | U-251 > 100 µM | SF-539 > 100 µM | SK-MEL-5 > 100 µM | NCI-H23 > 100 µM

Cc1ccnc2nc3[nH]c4ccccc4c3cc12
inactive: MOLT-4 > 100 µM | MDA-N > 100 µM | HOP-62 75.7 µM | UACC-257 89.5 µM | OVCAR-3 > 100 µM | SNB-75 22 µM | OVCAR-8 66.8 µM | A549 > 100 µM | NCI-H522 > 100 µM | IGROV-1 > 100 µM | 786-0 24.4 µM | ACHN > 100 µM | U-251 39.1 µM | SF-539 > 100 µM | SK-MEL-5 > 100 µM | NCI-H23 > 100 µM

O=C(N/N=C1\C(=O)Nc2c(Cl)cc(Cl)cc21)C(=O)Nc1cccc(C(F)(F)F)c1
inactive: MOLT-4 85.1 µM | MDA-N 54 µM | HOP-62 > 100 µM | UACC-257 > 100 µM | OVCAR-3 > 100 µM | SK-OV-3 > 100 µM | SK-MEL-28 > 100 µM | SNB-75 > 100 µM | OVCAR-8 > 100 µM | A549 > 100 µM | IGROV-1 > 100 µM | 786-0 > 100 µM | ACHN > 100 µM | U-251 97.5 µM | SF-539 > 100 µM | SK-MEL-5 > 100 µM | Malme-3M > 100 µM | NCI-H23 > 100 µM

C=CCCCn1ccc2ccccc21
inactive: MOLT-4 > 100 µM | HOP-62 > 100 µM | UACC-257 > 100 µM | OVCAR-3 > 100 µM | SK-OV-3 > 100 µM | SK-MEL-28 > 100 µM | SNB-75 > 100 µM | OVCAR-8 > 100 µM | A549 > 100 µM | NCI-H522 > 100 µM | IGROV-1 > 100 µM | 786-0 > 100 µM | ACHN > 100 µM | U-251 > 100 µM | SF-539 > 100 µM | SK-MEL-5 > 100 µM | Malme-3M > 100 µM | NCI-H23 > 100 µM

CC1(C)C/N=C/C(C)(OCc2ccccc2)C(=O)NC(C)(C)C/N=C/C(C)(OCc2ccccc2)C(=O)N1 (configuration not stated)
inactive: MOLT-4 > 10 µM | MDA-N > 10 µM | HOP-62 > 10 µM | UACC-257 > 10 µM | OVCAR-3 > 10 µM | SK-OV-3 > 10 µM | SK-MEL-28 > 10 µM | SNB-75 3.82 µM | OVCAR-8 > 10 µM | A549 > 10 µM | IGROV-1 > 10 µM | 786-0 > 10 µM | ACHN > 10 µM | U-251 > 10 µM | SF-539 > 10 µM | SK-MEL-5 > 10 µM | NCI-H23 > 10 µM

CN(C)c1ccc(/C=C2\C[C@H]3[C@@H]4CCc5cc(OCCN6CCCC6)ccc5[C@H]4CC[C@]3(C)C2=O)cc1
inactive: MOLT-4 1.31 µM | MDA-N 1.85 µM | UACC-257 2.21 µM | SK-OV-3 1.87 µM | SK-MEL-28 1.53 µM | SNB-75 1.71 µM | A549 1.5 µM | IGROV-1 1.13 µM | 786-0 1.32 µM | ACHN 1.73 µM | SF-539 1.59 µM | SK-MEL-5 1.73 µM | NCI-H23 3.25 µM

COc1ccc2c(c1)/C(=C\c1c(C)nc3n1CCS3)C(=O)N2
inactive: MOLT-4 32.4 µM | MDA-N 3.29 µM | HOP-62 32.3 µM | UACC-257 47.6 µM | OVCAR-3 21.7 µM | SK-OV-3 19.7 µM | SK-MEL-28 46.8 µM | SNB-75 28.1 µM | OVCAR-8 37 µM | A549 24.1 µM | IGROV-1 16.7 µM | 786-0 35.2 µM | ACHN 40.5 µM | U-251 22.1 µM | SF-539 18.3 µM | SK-MEL-5 34 µM | NCI-H23 24.5 µM

c1ccc2nc3c(nc2c1)sc1ccccc13
inactive: MOLT-4 21.8 µM | HOP-62 30.7 µM | UACC-257 37.2 µM | OVCAR-3 29.4 µM | SK-OV-3 13.2 µM | SK-MEL-28 > 100 µM | SNB-75 22.2 µM | A549 16.4 µM | NCI-H522 24.2 µM | IGROV-1 15.6 µM | 786-0 23 µM | ACHN 14.3 µM | U-251 16 µM | SF-539 16.4 µM | SK-MEL-5 30.9 µM | Malme-3M 46.9 µM | NCI-H23 23.2 µM

NC(=O)c1nnn(-c2ccccc2)c1O
inactive: MOLT-4 > 100 µM | HOP-62 > 100 µM | UACC-257 > 100 µM | OVCAR-3 > 100 µM | SK-OV-3 > 100 µM | SK-MEL-28 > 100 µM | SNB-75 > 100 µM | OVCAR-8 > 100 µM | A549 > 100 µM | NCI-H522 > 100 µM | IGROV-1 > 100 µM | 786-0 > 100 µM | ACHN > 100 µM | U-251 > 100 µM | SF-539 > 100 µM | SK-MEL-5 > 100 µM | Malme-3M > 100 µM | NCI-H23 > 100 µM
